Laboratory results from patent US20100278733A1, “COMPOSITION FOR DIAGNOSIS OF AMYLOID-RELATED DISEASE” (priority 2007, published 2010).
One block for each compound: values may come before it.

Columns and labels:
[1] = molecular target: T1, Aβ(1-40) aggregate (Homo sapiens, UniProt P05067); assay: In-vitro binding experiment of chalcone derivatives using Aβ aggregate (Reference Example 1); details: in words; radioactivity on filter in presence vs absence of Aβ aggregate, FIG. 14; compound numbers of Reference Example 1
T1 construct: Amyloid β protein (Human, 1-40) [HCl form]; purchased Peptide Institute, Inc
Description: As a radioactive iodine-125 (^125I), IODINE-125 (74 MBq) manufactured by Amersham Biosciences was used. Reverse phase HPLC was performed at a flow rate of 1.0 mL/min using Cosmosil 5C18-AR Column (4.6×150 mm) manufactured by Nacalai Tesque Inc. and ultrapure water (A) and acetonitrile (B) (A:B=40:60) as an elution solvent. ^1H-NMR was measured using Varian Gemini 300 and tetramethylsilane as an internal standard substance. Mass spectrometry was performed using JEOL IMS-DX300. Amyloid β protein (Human, 1-40) [HCl form] and Amyloid β protein (Human, 1-42) [TFA form] were purchased from Peptide Institute, Inc., and special grade reagents were used as other reagents.
The Aβ aggregate was dissolved in a buffer containing 10 mM sodium phosphate and 1 mM EDTA (pH 7.4) at a concentration of 0.5 mg/mL, and the mixture was incubated at 37° C. for 36 to 42 h. The binding experiment was performed using 12×75 mm borosilicate glass tubes. 900 μL of 10% ethanol solution, 50 μL (57 nM) of an Aβ(1-40) aggregate solution, and 50 μL of [^125I]Compound 7 or 12 having various concentrations were mixed, and the mixture was allowed to stand at room temperature for 3 h. […] The radioactivities of substances remaining in the filter used for filtration were measured with a γ counter.

[2] = test system: senile plaque amyloid and vascular amyloid; assay: Fluorescence staining experiment using brain tissue sections of Alzheimer's disease model mice; format: binding, APP/PS1 double transgenic mouse; details: in words; 100 μM in 50% aqueous ethanol, fluorescence microscope, FIG. 11
Description: As an Alzheimer's disease model mouse, APP/PS1 double transgenic mouse was used. The brain was removed, immobilized with 10% formaldehyde, dehydrated with alcohol and xylene, and then paraffin-embedded. The paraffin-embedded brain tissue was cut into a 5-μm section, and the section was treated with xylene, alcohol, and water and deparaffinized. The section was incubated in PBS for 30 min and then in solutions of various chalcone derivatives (100 μM) in 50% aqueous ethanol for 10 min. The section was washed with 50% ethanol and PBS and then examined with a fluorescence microscope (Leica TCS SP2).

[3] = In-vivo radioactivity distribution experiment using normal mice (Example 2); details: Example 2 numbering; for In-vivo radioactivity distribution: blood / In-vivo radioactivity distribution: brain / In-vivo radioactivity distribution: heart / In-vivo radioactivity distribution: intestine / In-vivo radioactivity distribution: kidney / In-vivo radioactivity distribution: liver / In-vivo radioactivity distribution: lung / In-vivo radioactivity distribution: pancreas / In-vivo radioactivity distribution: spleen / In-vivo radioactivity distribution: stomach: normal mice, intravenous
Description: Radioactive iodine labeling compounds were diluted with physiological saline containing 10% EtOH. To each of four or five 5-week-old male ddY mice (20 to 25 g) per group, […] of a labeled compound, [^125I]Compound 7, 10, 13, or 14 (0.2 to 0.4 mCi), was administered from the caudal vein. Animals were decapitated at 2, 10, 30, or 60 min, blood was collected, the major organs were isolated, and then weights and radioactivities thereof were measured.

[4] = molecular target: T2, Aβ(1-42) aggregate (Homo sapiens, UniProt P05067); assay: Binding inhibition experiment using Aβ(1-42) aggregate, Ki values (Example 2); details: radioactive ligand [^125I]CL-NMe2; mean ± standard error of 3 experiments (compound 4: 6 experiments); compound numbers of Example 2; read-out: Ki values calculated by inhibition experiment
T2 construct: Amyloid β protein (Human, 1-42) [TFA form] was purchased from Peptide Institute, Inc; purchased Peptide Institute, Inc
Description: As a radioactive iodine-125 (^125I), Iodine-125 (3.7 GBq/mL) manufactured by MP Biomedicals, Inc. was used. Reverse phase HPLC was performed at a flow rate of 1.0 mL/min using a Cosmosil 5C18-AR-II column (4.6×150 mm) manufactured by Nacalai Tesque Inc. and ultrapure water:acetonitrile=3:7 as an elution solvent. ^1HNMR was measured using Varian Gemini 300 and tetramethylsilane as an internal standard substance. Mass spectrometry was performed using JEOL IMS-DX300. Preparative TLC was performed using 12 PLC plates 20×20-cm-Silica gel 60 F254, 2 mm manufactured by MERCK. Amyloid β protein (Human, 1-42) was purchased from Peptide Institute, Inc., and special grade reagents were used as other reagents.
(§1) Aβ(1-42) was dissolved in 10 mM phosphate buffer containing 1 mM EDTA (pH 7.4) at a concentration of 0.25 mg/mL, and the mixture was incubated at 37° C. for 42 h to prepare an Aβ(1-42) aggregate.
[…] of 10% EtOH solution, […] of a solution of [^125I]4-diethylamino-4′-iodochalcone ([^125I]CL-NMe2) in 10% ethanol, and […] of a sample solution at various concentrations (0 to 20 mM) were mixed, […] of an Aβ(1-42) aggregate solution was finally added, and the mixture was allowed to stand at room temperature for 3 h. Aβ(1-42) aggregate-bound compounds and nonbound compounds were separated with a Brandel M-24R cell harvester using a Whatman GF/B filter. Radioactivities remaining on the filter after filtration were measured with a γ-counter, and inhibition curves were created using Graph Pad Prism 4.0 to calculate inhibition constants (Ki values).

[5] = molecular target: T2, Aβ(1-42) aggregate; assay: Examination of binding site by binding inhibition experiment using Aβ(1-42) aggregate (Example 2); details: FIG. 10, compound numbers of Example 2, read-out: Ki for inhibition of binding of [^125I]CL-NMe2 to the Aβ(1-42) aggregate
Description: as §1
850 mL of 10% EtOH solution, […] of [^125I]CL-NMe2 solution, […] of a solution of congo red, thioflavine T, or compound 14 at various concentrations (0 to 20 mM) were mixed, […] of an Aβ(1-42) aggregate solution was finally added, and the mixture was allowed to stand at room temperature for 3 h. Aβ(1-42) aggregate-bound compounds and nonbound compounds were separated with a Brandel M-24R cell harvester using a Whatman GF/B filter. Radioactivities remaining on the filter after filtration were measured with a γ-counter, and inhibition curves were created using Graph Pad Prism 4.0 to calculate inhibition constants.

T2 sequence (P05067 672-713 limits assumed): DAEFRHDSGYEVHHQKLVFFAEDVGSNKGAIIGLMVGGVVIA
T1 sequence (P05067 672-711 limits assumed): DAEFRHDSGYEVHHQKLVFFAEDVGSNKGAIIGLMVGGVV

binding property to the Aβ aggregate [1]: strong binding property
SMILES: CN(C)c1ccc(/C=C/C(=O)c2ccc(I)cc2)cc1 [Compound 12 in Reference Example 1]

stability in the organism ([3]; in words: radioactivity accumulation in the stomach, retention in blood, deiodination): instability in the organism | In-vivo radioactivity distribution: blood ([3]; 2 min): 4.91 (0.71) percent of the dose/g | In-vivo radioactivity distribution: brain ([3]; 2 min): 2.40 (0.30) percent of the dose/g | In-vivo radioactivity distribution: heart ([3]; 2 min): 5.05 (0.95) percent of the dose/g | In-vivo radioactivity distribution: intestine ([3]; 2 min): 1.73 (0.21) percent of the dose/g | In-vivo radioactivity distribution: kidney ([3]; 2 min): 7.41 (1.54) percent of the dose/g | In-vivo radioactivity distribution: liver ([3]; 2 min): 9.57 (2.00) percent of the dose/g | In-vivo radioactivity distribution: lung ([3]; 2 min): 8.29 (0.99) percent of the dose/g | In-vivo radioactivity distribution: pancreas ([3]; 2 min): 3.82 (0.57) percent of the dose/g | In-vivo radioactivity distribution: spleen ([3]; 2 min): 4.05 (0.63) percent of the dose/g | In-vivo radioactivity distribution: stomach ([3]; 2 min): 1.21(0.27) percent of the dose | In-vivo radioactivity distribution: blood ([3]; 10 min): 3.58 (0.35) percent of the dose/g | In-vivo radioactivity distribution: brain ([3]; 10 min): 0.75 (0.31) percent of the dose/g | In-vivo radioactivity distribution: heart ([3]; 10 min): 3.02 (0.60) percent of the dose/g | In-vivo radioactivity distribution: intestine ([3]; 10 min): 2.57 (0.53) percent of the dose/g | In-vivo radioactivity distribution: kidney ([3]; 10 min): 4.66 (0.68) percent of the dose/g | In-vivo radioactivity distribution: liver ([3]; 10 min): 7.10 (1.08) percent of the dose/g | In-vivo radioactivity distribution: lung ([3]; 10 min): 5.17 (0.69) percent of the dose/g | In-vivo radioactivity distribution: pancreas ([3]; 10 min): 1.94 (0.80) percent of the dose/g | In-vivo radioactivity distribution: spleen ([3]; 10 min): 5.48 (1.02) percent of the dose/g | In-vivo radioactivity distribution: stomach ([3]; 10 min): 5.29 (1.24) percent of the dose | In-vivo radioactivity distribution: blood ([3]; 30 min): 2.92 (0.60) percent of the dose/g | In-vivo radioactivity distribution: brain ([3]; 30 min): 0.31 (0.04) percent of the dose/g | In-vivo radioactivity distribution: heart ([3]; 30 min): 1.48 (0.78) percent of the dose/g | In-vivo radioactivity distribution: intestine ([3]; 30 min): 4.05 (0.99) percent of the dose/g | In-vivo radioactivity distribution: kidney ([3]; 30 min): 4.31 (1.01) percent of the dose/g | In-vivo radioactivity distribution: liver ([3]; 30 min): 5.95 (1.19) percent of the dose/g | In-vivo radioactivity distribution: lung ([3]; 30 min): 3.53 (0.35) percent of the dose/g | In-vivo radioactivity distribution: pancreas ([3]; 30 min): 1.95 (0.32) percent of the dose/g | In-vivo radioactivity distribution: spleen ([3]; 30 min): 5.01 (1.72) percent of the dose/g | In-vivo radioactivity distribution: stomach ([3]; 30 min): 9.81 (6.47) percent of the dose | In-vivo radioactivity distribution: blood ([3]; 60 min): 2.63 (0.45) percent of the dose/g | In-vivo radioactivity distribution: brain ([3]; 60 min): 0.21 (0.02) percent of the dose/g | In-vivo radioactivity distribution: heart ([3]; 60 min): 1.65 (0.24) percent of the dose/g | In-vivo radioactivity distribution: intestine ([3]; 60 min): 4.69 (1.64) percent of the dose/g | In-vivo radioactivity distribution: kidney ([3]; 60 min): 2.44 (0.35) percent of the dose/g | In-vivo radioactivity distribution: liver ([3]; 60 min): 4.96 (1.27) percent of the dose/g | In-vivo radioactivity distribution: lung ([3]; 60 min): 2.87 (0.46) percent of the dose/g | In-vivo radioactivity distribution: pancreas ([3]; 60 min): 1.86 (0.27) percent of the dose/g | In-vivo radioactivity distribution: spleen ([3]; 60 min): 3.03 (0.31) percent of the dose/g | In-vivo radioactivity distribution: stomach ([3]; 60 min): 8.73 (4.21) percent of the dose | Ki [4]: 3.9 ± 0.4 nM | Ki [5]: 4 nM
SMILES: CN(C)c1ccc(C=CC(=O)c2ccc(I)s2)cc1 [Compound 14 in Example 2, 1-(5-iodo-2-thienyl)-3-(4-dimethylaminophenyl)-prop-2-en-1-one]
binding property to senile plaque amyloid and vascular amyloid on brain tissue sections [2]: stronger than that of fluorine-containing chalcone derivatives
